Results: article PMC9061999, “Application of the Adverse Outcome Pathway Concept to In Vitro Nephrotoxicity Assessment: Kidney Injury due to Receptor-Mediated Endocytosis and Lysosomal Overload as a Case Study” (Frontiers in Toxicology, 2022)

Legend:
NRK-52E cells [1] = assay: Cathepsin D immunofluorescence (KE2, disruption of lysosomes); assay type: cell-based, rat; conditions: for MOE, lowest across KEs: in vitro PODs in NRK-52E vs rat plasma concentrations after human equivalent or nephrotoxic doses
Protocol: (§1) For immunocytochemistry experiments, cells were seeded into 8-well chamber slides (Ibidi) at a density of 140 cells per µL in 300 µL growth medium and were allowed to grow for 48 h (NRK-52E) or 10 d (RPTEC/TERT1) respectively. For treatment, stock solutions (1,000 µM) of compounds dissolved in growth medium were freshly prepared and serial dilutions were made before exposure of cells for 24 h. After treatment, cells were washed twice with 150 µL PBS and fixed with 150 µL 4% paraformaldehyde in 1 x PBS for 10 min at room temperature. After fixation, cells were washed 10 min with 150 µL PBS on an orbital shaker followed by permeabilization with 150 µL 0.2% Triton X-100 in 1 x PBS for 5 min at room temperature on an orbital shaker. The permeabilized cells were washed twice with 1 x PBS (150 µL) for 10 min at room temperature on an orbital shaker and then incubated with 150 µL 5% BSA dissolved in 1 x PBS for 1 h at room temperature to block unspecific binding sites. After blocking, 100 µL primary antibody diluted 1:100 in 1% BSA in 1 x PBS were directly pipetted onto the cells and incubated overnight at 4°C. The following antibodies were employed for NRK-52E cells: Anti-LAMP-1 monoclonal IgG1 kappa mouse antibody (Santa Cruz; sc-20011), anti-Cathepsin D mouse monoclonal IgG2 kappa antibody (Santa Cruz; sc-377124); for RPTEC/TERT1 cells: Anti-LAMP-2 monoclonal mouse antibody (Santa Cruz; sc-18822), anti-Cathepsin D mouse monoclonal IgG2b kappa (Novus Biologicals; NBP1-04278); for both cell lines anti-megalin mouse monoclonal IgG1 antibody (Santa Cruz, sc-515772).
(§2) After incubation with primary antibody, cells were washed three times for 15 min with 0.2% Tween in 1 x PBS (150 µL) on an orbital shaker. Cells were incubated for 1 h at room temperature with 100 µL CFL 488-conjugated mouse IgG kappa binding protein (1:50) (m-IgGκ BP-CFL 488; Santa Cruz, sc-516176). After incubation the cells were washed three times for 15 min with 0.2% Tween in 1 x PBS on an orbital shaker and once with 150 µL sterile water. […] To preserve fluorescence 50–100 µL DAPI mounting medium (Vectashield®; Vectorlab, Biozol) was added to the cells and chamber slides were stored at 4°C in the dark until image acquisition.
(§3) Images were taken with a TCS SP5 II confocal microscope with an HCX PL APO lambda blue 63.0 × 1.40 OIL UV objective (Leica Microsystems, Wetzlar, GER) (n = 10 cells/treatment group). […] Before quantification, images were blinded and randomized. Quantification of fluorescence intensity was performed using NIH Image® software. […] The mean values of the pixel intensities were automatically calculated by the software and imported in Excel for further processing.

RPTEC/TERT1 cells [2] = assay: LAMP-2 immunofluorescence (KE1, disturbance of lysosomal function); assay type: cell-based, human; conditions: for BMC10, KE1: in vitro POD from KE dose-response, LAMP-2 intensity, RPTEC/TERT1, 24 h treatment, n = 3 independent experiments; for MOE, lowest across KEs: in vitro PODs in RPTEC/TERT1 vs human plasma concentrations at therapeutic doses; for MOE, KE1: margin of exposure: BMC10 in RPTEC/TERT1 vs human plasma/serum concentration (cmax or css)
Protocol: as §1
After incubation with primary antibody, cells were washed three times for 15 min with 0.2% Tween in 1 x PBS (150 µL) on an orbital shaker. Cells were incubated for 1 h at room temperature with 100 µL CFL 488-conjugated mouse IgG kappa binding protein (1:50) (m-IgGκ BP-CFL 488; Santa Cruz, sc-516176). After incubation the cells were washed three times for 15 min with 0.2% Tween in 1 x PBS on an orbital shaker and once with 150 µL sterile water. Phalloidin-tetramethylrhodamine B isothiocyanate (TRITC) was used to stain the cytoskeleton and was diluted in 100% methanol to a stock concentration of 0.1 mg/ml and further diluted in 1 x PBS to a working concentration of 0.095 µM. After cells were washed once with 1 x PBS for 10 min at room temperature 150 µL phalloidin-TRITC working solution was added and the cells were incubated on an orbital shaker at room temperature for 60–90 min. After incubation, phalloidin-TRITC solution was aspirated, and the cells were washed once with 1 x PBS. Chamber slides were allowed to dry for 15 min at room temperature. To preserve fluorescence 50–100 µL DAPI mounting medium (Vectashield®; Vectorlab, Biozol) was added to the cells and chamber slides were stored at 4°C in the dark until image acquisition.
Images were taken with a TCS SP5 II confocal microscope with an HCX PL APO lambda blue 63.0 × 1.40 OIL UV objective (Leica Microsystems, Wetzlar, GER) (n = 10 cells/treatment group). The maximum excitation and emission settings for image acquisition were the following: Vectashield® antifade mounting medium with DAPI (λex 360 nm & λem 460 nm), for CFL 488-conjugated mouse IgG kappa binding protein (λex 490 nm & λem 525 nm) and phalloidin-TRITC (λex 545 nm & λem 573 nm). Before quantification, images were blinded and randomized. Quantification of fluorescence intensity was performed using NIH Image® software. Using the tool “Plot Profile” we generated a two-dimensional graph of the intensity of pixels along a reference line (6.35 µm) drawn across the cytoplasm of cells. The mean values of the pixel intensities were automatically calculated by the software and imported in Excel for further processing.

RPTEC/TERT1 cells [3] = assay: CellTiter-Glo cytotoxicity assay (KE3); assay type: cell-based, human; conditions: for BMC10, KE3: in vitro POD from KE dose-response, cell viability CellTiter-Glo, RPTEC/TERT1, 24 h treatment, n = 3; for MOE, KE3: margin of exposure: BMC10 in RPTEC/TERT1 vs human plasma/serum concentration (cmax or css)
Protocol: Cells were plated into 96-well tissue culture plates (10,000 cells per well) and were allowed to grow for 48 h (NRK-52E) respectively 10 d (RPTEC/TERT1) prior to 24 h treatment with model stressors. Stock solution for each compound (2000 µM) was prepared in growth medium and serial dilutions (1:1) were made before each experiment. At the end of the 24 h treatment, cell viability was measured using the CellTiter-Glo® assay (Promega). CellTiter-Glo® reagents and buffer were mixed under light-protected conditions and 100 µL CellTiter-Glo® solution was added directly to each well followed by 2 min incubation on an orbital shaker and 10 min incubation at room temperature in the dark to stabilize the luminescence signal. The suspension was mixed via pipetting and 50 µL were transferred into white 96-well plates (PerkinElmer Inc.). The luminescence signal was measured on a multiplate reader (Mithras LB 940; Berthold). Each assay was performed in three independent experiments carried out in triplicates.

NRK-52E cells [4] = assay: LAMP-1 immunofluorescence (KE1, disturbance of lysosomal function); assay type: cell-based, rat; conditions: for BMC10, KE1: in vitro POD from KE dose-response, LAMP-1 intensity, NRK-52E, 24 h treatment, n = 3; for MOE, KE1: margin of exposure: BMC10 in NRK-52E vs rat plasma/serum concentration (cmax or css)
Protocol: as §1, §2, §3

Colistin
MOE, lowest across KEs (NRK-52E cells [1]): 1.8
BMC10, KE1 (RPTEC/TERT1 cells [2]): 4.3 µM
MOE, lowest across KEs (RPTEC/TERT1 cells [2]): 0.5
MOE, KE1 (RPTEC/TERT1 cells [2]): 0.5 – 10.2
BMC10, KE3 (RPTEC/TERT1 cells [3]): 23.5 µM
MOE, KE3 (RPTEC/TERT1 cells [3]): 2.9 – 56.0
BMC10, KE1 (NRK-52E cells [4]): 36.2 µM
MOE, KE1 (NRK-52E cells [4]): 3.5 – 7.1

Polymyxin B
BMC10, KE2 (NRK-52E cells [1]; in vitro POD from KE dose-response, cathepsin D intensity, NRK-52E, 24 h treatment, n = 3): 5.8 µM
MOE, lowest across KEs (NRK-52E cells [1]): 0.8
MOE, KE2 (NRK-52E cells [1]; margin of exposure: BMC10 in NRK-52E vs rat plasma/serum concentration (cmax or css)): 0.8
BMC10, KE1 (RPTEC/TERT1 cells [2]): 4.2 µM
MOE, lowest across KEs (RPTEC/TERT1 cells [2]): 1
MOE, KE1 (RPTEC/TERT1 cells [2]): 1.0 - 7.4
BMC10, KE3 (RPTEC/TERT1 cells [3]): 14.2 µM
MOE, KE3 (RPTEC/TERT1 cells [3]): 3.5 – 24.9
BMC10, KE1 (NRK-52E cells [4]): 13.7 µM
MOE, KE1 (NRK-52E cells [4]): 1.9 – 2.0
